Results as given in paper PMC10771525 (Communications Biology, 2024).
Values belong to the molecule of their own block, whether it stands above or below them.

Columns and labels:
LTB4R = LTB4R (Homo sapiens, UniProt Q15722); assay: GPCR panel (control), Arrestin, CHO-K1; type: cell-based; conditions: reference agonist
HTR1B = HTR1B (Homo sapiens, UniProt P28222); assay: GPCR panel (control), Arrestin, U2OS; type: cell-based; conditions: reference agonist
HTR1E = HTR1E (Homo sapiens, UniProt P28566); assay: GPCR panel (control), Arrestin, U2OS; type: cell-based; conditions: reference agonist
Chain of HTR1E (P28566 whole entry): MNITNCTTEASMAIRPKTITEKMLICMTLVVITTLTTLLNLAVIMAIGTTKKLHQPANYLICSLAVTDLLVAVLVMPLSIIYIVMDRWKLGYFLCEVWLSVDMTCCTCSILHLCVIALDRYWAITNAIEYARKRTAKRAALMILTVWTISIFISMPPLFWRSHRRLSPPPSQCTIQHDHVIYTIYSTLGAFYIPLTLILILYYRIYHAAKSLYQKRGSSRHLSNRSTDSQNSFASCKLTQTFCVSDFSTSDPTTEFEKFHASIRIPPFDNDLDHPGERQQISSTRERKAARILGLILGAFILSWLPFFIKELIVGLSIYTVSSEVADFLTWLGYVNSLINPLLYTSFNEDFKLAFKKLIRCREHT

HTR1F = HTR1F (Homo sapiens, UniProt P30939); assay: GPCR panel (control), Arrestin, U2OS; type: cell-based; conditions: reference agonist
Chain of HTR1F (P30939 whole entry): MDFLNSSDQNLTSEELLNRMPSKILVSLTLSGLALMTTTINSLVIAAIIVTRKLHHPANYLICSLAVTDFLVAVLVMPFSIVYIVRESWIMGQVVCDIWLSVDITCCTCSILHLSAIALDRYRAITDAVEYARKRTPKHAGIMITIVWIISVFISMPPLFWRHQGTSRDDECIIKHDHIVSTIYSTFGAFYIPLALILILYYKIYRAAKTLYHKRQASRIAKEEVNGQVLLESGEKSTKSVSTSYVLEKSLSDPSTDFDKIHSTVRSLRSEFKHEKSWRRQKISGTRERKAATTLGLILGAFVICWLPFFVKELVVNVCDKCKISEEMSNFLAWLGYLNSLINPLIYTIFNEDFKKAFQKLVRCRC

HTR5A = HTR5A (Homo sapiens, UniProt P47898); assay: GPCR panel (control), Arrestin, U2OS; type: cell-based; conditions: reference agonist
Chain of HTR5A (P47898 whole entry): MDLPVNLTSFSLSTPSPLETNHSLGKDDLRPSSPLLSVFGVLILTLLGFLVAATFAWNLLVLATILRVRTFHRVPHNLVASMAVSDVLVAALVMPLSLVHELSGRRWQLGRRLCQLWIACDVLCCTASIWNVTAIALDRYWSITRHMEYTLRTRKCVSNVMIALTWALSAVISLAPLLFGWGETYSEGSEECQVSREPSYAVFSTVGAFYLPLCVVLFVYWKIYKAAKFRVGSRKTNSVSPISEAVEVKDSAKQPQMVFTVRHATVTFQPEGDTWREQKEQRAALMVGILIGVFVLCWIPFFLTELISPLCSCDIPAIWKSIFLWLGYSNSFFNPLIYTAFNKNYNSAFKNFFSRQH

HTR2A = HTR2A (Homo sapiens, UniProt P28223); conditions: reference agonist, U2OS, Arrestin
Chain of HTR2A (P28223 whole entry): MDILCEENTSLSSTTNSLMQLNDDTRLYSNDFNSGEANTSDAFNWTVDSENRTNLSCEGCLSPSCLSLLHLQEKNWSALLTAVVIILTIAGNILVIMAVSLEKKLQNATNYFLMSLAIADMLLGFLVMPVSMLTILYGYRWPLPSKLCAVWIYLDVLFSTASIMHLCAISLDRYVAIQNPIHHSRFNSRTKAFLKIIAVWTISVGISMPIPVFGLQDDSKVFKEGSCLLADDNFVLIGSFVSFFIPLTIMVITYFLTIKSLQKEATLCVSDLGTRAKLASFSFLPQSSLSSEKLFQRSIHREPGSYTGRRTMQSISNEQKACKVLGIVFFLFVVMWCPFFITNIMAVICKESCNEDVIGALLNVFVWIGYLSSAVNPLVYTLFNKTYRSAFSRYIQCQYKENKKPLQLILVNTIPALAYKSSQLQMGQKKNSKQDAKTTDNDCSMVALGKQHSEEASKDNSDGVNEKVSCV

AGTR1 = AGTR1 (Homo sapiens, UniProt P30556); conditions: reference agonist, AGTR1, CHO-K1, Arrestin
Chain of AGTR1 (P30556 whole entry): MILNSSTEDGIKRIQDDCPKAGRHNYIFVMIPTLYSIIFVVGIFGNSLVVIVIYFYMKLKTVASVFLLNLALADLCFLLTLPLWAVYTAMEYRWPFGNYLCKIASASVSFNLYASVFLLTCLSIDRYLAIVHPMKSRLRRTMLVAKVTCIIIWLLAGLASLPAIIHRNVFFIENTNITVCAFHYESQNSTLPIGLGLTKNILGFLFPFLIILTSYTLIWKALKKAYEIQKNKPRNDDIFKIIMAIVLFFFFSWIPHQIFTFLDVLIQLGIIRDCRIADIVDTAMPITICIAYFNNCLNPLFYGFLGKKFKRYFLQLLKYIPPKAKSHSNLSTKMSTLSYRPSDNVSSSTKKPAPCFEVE

MRGPRX2 [1] = conditions: MRGPRX2 recombinantly expressed in HEK293 cells; read-out: EC50, calcium mobilization assays; cited from earlier work
From the text: Other CXCLs contain sequences that are similar to the proposed pentapeptidic motif, but are either deeply buried in the typical 3D structure of the chemokine, or located near acidic amino acids, that are not tolerated by the negatively charged binding pocket of MRGPRX2 (see sequence alignment in Supplementary Fig. 4 for further information). […] No ...

MRGPRX2 [2] = target: T1, MRGPRX2 (Homo sapiens, UniProt Q96LB1); assay: GPCR panel (control), Arrestin, CHO-K1; type: cell-based; conditions: reference agonist
T1 sequence (Q96LB1 1-330): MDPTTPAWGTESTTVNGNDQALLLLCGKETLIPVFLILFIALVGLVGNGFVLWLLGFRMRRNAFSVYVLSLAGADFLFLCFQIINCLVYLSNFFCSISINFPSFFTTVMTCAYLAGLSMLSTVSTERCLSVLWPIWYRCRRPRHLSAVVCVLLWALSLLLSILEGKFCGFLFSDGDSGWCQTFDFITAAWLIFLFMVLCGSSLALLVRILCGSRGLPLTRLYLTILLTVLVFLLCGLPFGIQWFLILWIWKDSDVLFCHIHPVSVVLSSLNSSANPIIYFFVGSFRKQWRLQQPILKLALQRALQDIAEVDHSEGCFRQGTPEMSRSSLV

MC1R = MC1R (Homo sapiens, UniProt Q01726); conditions: reference agonist, CHO-K1, Arrestin
Chain of MC1R (Q01726 whole entry): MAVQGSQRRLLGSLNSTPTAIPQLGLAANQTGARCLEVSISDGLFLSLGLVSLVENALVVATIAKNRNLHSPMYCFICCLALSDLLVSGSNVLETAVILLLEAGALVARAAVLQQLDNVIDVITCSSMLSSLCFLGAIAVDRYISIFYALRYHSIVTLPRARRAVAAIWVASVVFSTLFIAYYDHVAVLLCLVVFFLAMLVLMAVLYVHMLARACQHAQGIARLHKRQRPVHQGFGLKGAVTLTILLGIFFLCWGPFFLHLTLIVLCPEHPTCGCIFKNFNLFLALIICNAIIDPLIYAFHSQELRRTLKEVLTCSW

MC3R = MC3R (Homo sapiens, UniProt P41968); conditions: reference agonist, CHO-K1, Arrestin
Chain of MC3R (P41968 whole entry): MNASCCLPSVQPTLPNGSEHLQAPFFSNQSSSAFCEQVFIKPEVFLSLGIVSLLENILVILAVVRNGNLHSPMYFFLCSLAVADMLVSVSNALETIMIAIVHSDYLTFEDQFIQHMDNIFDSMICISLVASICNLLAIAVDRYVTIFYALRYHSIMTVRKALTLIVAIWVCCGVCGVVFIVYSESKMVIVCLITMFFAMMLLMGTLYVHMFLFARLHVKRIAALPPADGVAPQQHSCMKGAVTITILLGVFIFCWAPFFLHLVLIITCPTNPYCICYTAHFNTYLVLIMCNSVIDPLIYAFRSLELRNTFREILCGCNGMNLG

MC5R = MC5R (Homo sapiens, UniProt P33032); conditions: reference agonist, CHO-K1, Arrestin
Chain of MC5R (P33032 whole entry): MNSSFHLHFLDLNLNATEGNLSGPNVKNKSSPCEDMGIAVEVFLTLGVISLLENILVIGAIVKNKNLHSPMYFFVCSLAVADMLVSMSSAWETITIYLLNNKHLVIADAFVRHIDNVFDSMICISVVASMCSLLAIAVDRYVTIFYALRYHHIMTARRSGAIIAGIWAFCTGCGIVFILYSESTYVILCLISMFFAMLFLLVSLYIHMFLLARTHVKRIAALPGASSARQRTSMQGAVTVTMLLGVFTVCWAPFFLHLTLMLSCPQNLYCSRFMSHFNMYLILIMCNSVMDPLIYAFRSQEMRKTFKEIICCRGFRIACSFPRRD

MLNR = target: T2, MLNR (Homo sapiens, UniProt O43193); assay: GPCR panel (control), Arrestin, CHO-K1; type: cell-based; conditions: reference agonist
T2 construct: expressed in transfected cells; host or cells: CHO-K1
T2 sequence (O43193 whole entry): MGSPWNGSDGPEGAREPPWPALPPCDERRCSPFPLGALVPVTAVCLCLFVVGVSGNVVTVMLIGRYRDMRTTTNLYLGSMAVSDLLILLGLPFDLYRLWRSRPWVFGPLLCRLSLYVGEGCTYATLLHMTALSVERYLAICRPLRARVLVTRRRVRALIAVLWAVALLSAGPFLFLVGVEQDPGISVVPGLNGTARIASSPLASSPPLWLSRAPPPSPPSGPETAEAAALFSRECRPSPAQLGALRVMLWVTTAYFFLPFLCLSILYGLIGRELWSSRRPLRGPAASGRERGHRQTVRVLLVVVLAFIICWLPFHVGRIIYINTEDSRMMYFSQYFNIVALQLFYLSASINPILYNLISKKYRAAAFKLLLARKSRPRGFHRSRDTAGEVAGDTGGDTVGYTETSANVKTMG

NMU1R = target: T3, NMU1R (Homo sapiens, UniProt Q9HB89); assay: GPCR panel (control), Arrestin, U2OS; type: cell-based; conditions: reference agonist
T3 construct: expressed in transfected cells; host or cells: U2OS
T3 sequence (Q9HB89 whole entry): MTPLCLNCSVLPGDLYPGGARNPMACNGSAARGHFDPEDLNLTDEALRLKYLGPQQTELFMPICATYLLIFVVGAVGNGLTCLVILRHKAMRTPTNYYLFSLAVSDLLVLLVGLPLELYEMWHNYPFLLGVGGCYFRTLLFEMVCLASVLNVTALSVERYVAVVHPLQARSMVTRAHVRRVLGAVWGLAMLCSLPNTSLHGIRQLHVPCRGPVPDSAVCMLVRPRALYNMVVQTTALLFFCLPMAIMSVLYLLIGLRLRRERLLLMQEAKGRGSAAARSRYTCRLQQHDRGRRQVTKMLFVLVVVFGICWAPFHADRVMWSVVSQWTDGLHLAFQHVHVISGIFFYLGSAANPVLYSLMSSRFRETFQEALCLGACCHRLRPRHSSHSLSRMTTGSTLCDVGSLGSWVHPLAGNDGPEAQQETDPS

OPRL1 = OPRL1 (Homo sapiens, UniProt P41146); conditions: reference agonist, OPRL1, CHO-K1, Arrestin
Chain of OPRL1 (P41146 whole entry): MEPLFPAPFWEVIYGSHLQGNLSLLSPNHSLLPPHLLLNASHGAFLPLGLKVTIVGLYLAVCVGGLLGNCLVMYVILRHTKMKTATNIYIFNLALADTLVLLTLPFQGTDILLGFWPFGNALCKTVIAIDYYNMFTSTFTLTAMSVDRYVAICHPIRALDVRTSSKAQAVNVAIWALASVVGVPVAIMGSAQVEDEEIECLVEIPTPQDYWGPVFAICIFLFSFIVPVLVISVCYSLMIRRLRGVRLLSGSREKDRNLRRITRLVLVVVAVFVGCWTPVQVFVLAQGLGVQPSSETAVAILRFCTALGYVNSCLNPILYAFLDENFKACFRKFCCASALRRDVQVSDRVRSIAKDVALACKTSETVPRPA

[3] = target: T4, mouse MRGPRB2 in 1321N1 astrocytoma cells (mouse) (UniProt Q3KNA1)
T4 sequence: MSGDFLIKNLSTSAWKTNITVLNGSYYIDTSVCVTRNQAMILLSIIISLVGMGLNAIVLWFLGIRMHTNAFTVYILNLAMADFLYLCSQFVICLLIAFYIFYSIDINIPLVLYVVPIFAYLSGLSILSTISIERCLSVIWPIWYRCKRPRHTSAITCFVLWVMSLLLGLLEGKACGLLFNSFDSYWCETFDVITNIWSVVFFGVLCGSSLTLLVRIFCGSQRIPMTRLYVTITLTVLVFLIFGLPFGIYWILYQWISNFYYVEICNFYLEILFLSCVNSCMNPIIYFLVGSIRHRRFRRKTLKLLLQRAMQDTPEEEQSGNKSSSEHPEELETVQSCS

[4] = target: MRGPRX2 fused to ProLink (PK), in CHO β-arrestin cells (human) (UniProt Q96LB1)
[5] = target: MRGPRX2 in CHEM-1 cells (human) (UniProt Q96LB1)
[6] = target: MRGPRX2 in LN229 glioblastoma cells (human) (UniProt Q96LB1)
[7] = target: T4, mouse MRGPRB2 in 1321N1 astrocytoma cells (mouse); remark: listed apart in the source
MRGPRX2 [8] = target: T1, MRGPRX2; assay: β-arrestin recruitment assay (enzyme complementation), β-arrestin-CHO cells recombinantly expressing MRGPRX2; type: cell-based; conditions: 90 min incubation, chemiluminescence, means ± SD of 3 to 5 independent experiments in duplicates, read-out: EC50 ± SD, β-arrestin assays
MRGPRX2 [9] = target: T1, MRGPRX2; assay: calcium mobilization assay, LN229 cells recombinantly expressing MRGPRX2; type: cell-based; conditions: Fluo-4, means ± SD of 3 to 4 independent experiments in duplicates, read-out: EC50 ± SD, calcium mobilization assays
Procedure: LN229 glioblastoma cells ATCC®, CRL-2611TM, were a kind gift from Prof. Dr. B. Scheffler (University of Bonn, Germany). LN229 cells stably expressing MRGPRX2 were generated by retroviral transfection. Briefly, GP^+envAM-12 packaging cells (LGC Standards GmbH, Wesel, Germany), derived from mouse fibroblasts, were seeded at a density of 1.5 × 10^6 cells per T25-flask in 5 mL of Dulbecco’s Modified Eagle Medium (DMEM, Thermo Fisher Scientific, Waltham, MA, USA), supplemented with 10% fetal calf serum (FCS), 100 U/mL of penicillin (PAN-Biotech) and 100 µg/mL of streptomycin (PAN-Biotech). Packaging cells were transfected with pLXSN-MRGPRX2 and pcDNA3-VSV-G using Lipofectamine 2000 according to the manufacturer’s instructions (Thermo Fisher Scientific, Darmstadt, Germany). The medium was exchanged for DMEM supplemented with 10% FCS, 100 U/mL of penicillin, 100 µg/mL of streptomycin and 3 mM of sodium butyrate (stock solution: 500 mM in water, sterile-filtered) to enhance virus production. To produce retroviral particles, cells were cultivated for 48 h at 32°C and 5% CO2. On day 4, the target cells LN229 were seeded into T25 cell culture flasks (5 × 10^5 cell). […]
(§1) […]. […] For the determination of baseline fluorescence, HBSS buffer without additives was used. […]

MRGPRB2 = target: T5, MRGPRB2 (Mus musculus, UniProt Q3KNA1); assay: calcium mobilization assay, 1321N1 astrocytoma cells stably expressing MRGPRB2; type: cell-based
T5 construct: expressed in transfected cells; host or cells: 1321N1 astrocytoma cells (lentiviral, pLVX MRGPRB2-IRES-mCherry)
T5 sequence (Q3KNA1 1-338): T4 sequence
Procedure: 1321N1 Astrocytoma cells were purchased from Sigma Aldrich-Merck KGaA (Darmstadt, Germany, 86030402). The cells were transfected with MRGPRB2 using lentiviral transfection. 1.5 × 10^6 Lenti-X 293 T cells were seeded into each T25 cell culture flask in 5 mL of DMEM, supplemented with 10% FCS, 100 U/mL of penicillin and 100 µg/mL of streptomycin. After 20 h of incubation at 37°C and 5% CO2, when the cells were grown to 80–90% confluence, the medium was exchanged for 5 mL DMEM with 10% FCS without antibiotics and incubated for 4 h. Subsequently, transfection took place using Xfect polymer according to the manufacturer’s protocol (Clontech, Takara Bio Europe, France). The pLVX MRGPRB2-IRES-mCherry-Xfect mixture was added to the packaging cells and they were incubated overnight. […] To know how many astrocytoma cells expressed the target receptor, cells were analyzed under the fluorescence microscope at the m-cherry excitation wavelength of 587 nm using its emission wavelength of 610 nm. Subsequently, fluorescent single clones were isolated by fluorescence-activated cell sorting.
as §1

MRGPRX2 [10] = target: T1, MRGPRX2; assay: calcium mobilization assay, CHEM-1 cells recombinantly expressing MRGPRX2; type: cell-based; design: host or cells: CHEM-1 adherent rat hematopoietic cells; conditions: for pEC50: Fig. 3d
From the text: To confirm the initial results obtained in the β-arrestin recruitment assays, we established calcium mobilization assays in two different recombinant cell lines, CHEM-1 and LN229 cells, respectively. CHEM-1 cells are adherent rat hematopoietic cells with a high endogenous expression level of the promiscuous Gα15 protein enabling the measuring of calcium signaling of a large variety of GPCRs. […]. Subsequently, we employed recombinant human glioblastoma LN229 cells, a human cell line derived from glioblastoma multiforme tumors. […].
The cell lines CHEM1 and CHEM1-MRGPRX2 are adherent rat cell lines (HTSCHEM-1RTA, HTS058RTA, Merck-Millipore, Darmstadt, Germany); which were cultured under standard cell culture conditions.
A cell-based fluorometric assay was employed for the determination of intracellular calcium release using Fluo-8. Cells were seeded into microtiter plates and incubated under standard cell culture conditions. After 24 h the medium was removed, and the cells were washed with phosphate-buffered saline (PBS). The cells were incubated with loading buffer (40 ml PBS with 2 mM Ca^2+, 800 µl of brilliant black solution (2%), 732 µl of probenecid solution (0.5 M) in 1 N NaOH, 400 µL of pluronic (10%) in water, and 152 µl of Fluo-8 (5.7 ng/ml in water)) for 30 min. For fluorescence readout and compound testing a FLIPR tetra system was used according to the manufacture’s protocol (Molecular Devices, CA 94089- 1136, USA).

Chain of LTB4R (Q15722 whole entry): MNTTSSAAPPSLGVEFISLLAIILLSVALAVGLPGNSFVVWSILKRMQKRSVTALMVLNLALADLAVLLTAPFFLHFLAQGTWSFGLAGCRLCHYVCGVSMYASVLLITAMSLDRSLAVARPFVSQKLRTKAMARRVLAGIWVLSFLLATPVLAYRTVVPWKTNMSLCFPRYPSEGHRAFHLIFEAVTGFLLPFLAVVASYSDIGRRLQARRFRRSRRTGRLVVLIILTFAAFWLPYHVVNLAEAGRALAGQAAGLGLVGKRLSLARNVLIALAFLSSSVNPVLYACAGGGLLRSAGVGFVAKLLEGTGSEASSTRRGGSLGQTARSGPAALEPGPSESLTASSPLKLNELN
Chain of HTR1B (P28222 whole entry): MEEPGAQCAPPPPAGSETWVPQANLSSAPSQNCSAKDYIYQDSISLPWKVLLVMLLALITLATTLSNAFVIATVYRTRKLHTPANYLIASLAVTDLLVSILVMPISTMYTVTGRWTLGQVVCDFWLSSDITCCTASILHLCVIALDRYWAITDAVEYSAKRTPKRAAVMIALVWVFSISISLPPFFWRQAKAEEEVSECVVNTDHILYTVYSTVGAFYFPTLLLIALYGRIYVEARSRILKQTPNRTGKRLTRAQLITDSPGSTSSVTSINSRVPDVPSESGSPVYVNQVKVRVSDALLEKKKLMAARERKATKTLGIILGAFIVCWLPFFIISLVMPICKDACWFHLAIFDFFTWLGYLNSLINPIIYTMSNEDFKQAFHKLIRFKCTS

EC80 (LTB4R): 5 µM
Molecule: CCCCC/C=C\C[C@@H](O)/C=C/C=C/C=C\[C@@H](O)CCCC(=O)O [Leukotriene B4]

Molecule: NCCc1c[nH]c2ccc(O)cc12 [Serotonin]
EC80 (HTR1B): 7.7 µM
EC80 (HTR1E): 1.3 µM
EC80 (HTR1F): 6.6 µM
EC80 (HTR5A): 630 nM
EC80 (HTR2A): 7.1 µM

Molecule: Angiotensin II
EC80 (AGTR1): 150 nM

Molecule: CXCL4: chemokine, also known as platelet factor 4
EC50 (MRGPRX2 [1]): 9 µM

EC80 (MRGPRX2 [2]): 8.1 µM
Molecule: Cortistatin-14

Molecule: Melanotan II
EC80 (MC1R): 30 nM
EC80 (MC3R): 37 nM
EC80 (MC5R): 340 nM

Molecule: Motilin
EC80 (MLNR): 110 nM

EC80 (NMU1R): 92 nM
Molecule: Neuromedin U-25

Molecule: Orphanin FQ
EC80 (OPRL1): 150 nM

EC50, activation of MRGPRB2 as repeated in the discussion [3]: 0.923 µM
EC50, β-arrestin recruitment, β-arrestin-CHO cells recombinantly expressing MRGPRX2 [4]: 0.905 µM
EC50, calcium mobilization, CHEM-1 cells recombinantly expressing MRGPRX2 (no response in the parental CHEM1 cell line) [5]: 0.889 µM
EC50, calcium mobilization, LN229 cells recombinantly expressing MRGPRX2 (no activation in non-transfected LN229 cells) [6]: 0.504 µM
EC50, calcium mobilization, 1321N1 astrocytoma cells stably expressing MRGPRB2 (no response in non-transfected cells) [7]: 0.972 µM
B1: CXC motif chemokine 14 (CXCL14) (ligand)
chain: SKCKCSRKGPKIRYSDVKKLEMKPKYPHCEEKMVIITTKSVSRYRGQEHCLHPKLQSTKRFIKWYNAWNEKRRVYEE

EC50 (MRGPRX2 [8]): 905 ± 548 nM
EC50 (MRGPRX2 [9]): 504 nM
pEC50 MRGPRB2 (MRGPRB2; Fig. 6c source data, mean, SD and N in columns beside it (N = 2-3)): 6.032
Mean of MRGPRB2 (pEC50) (MRGPRB2; Fig. 6c, mean as listed in the unpaired t test with Welch correction, MRGPRX2 vs. MRGPRB2): 6.03
EC50 (MRGPRX2 [10]; CHEM-1 cells recombinantly expressing MRGPRX2, Fluo-8, FLIPR, read-out: EC50, calcium mobilization assays): 889 nM
pEC50 (MRGPRX2 [10]; replicate column 1): 5.955
pEC50 (MRGPRX2 [10]; replicate column 2): 6.033
pEC50 (MRGPRX2 [10]; replicate column 3): 6.061
pEC50 (MRGPRX2 [10]; replicate column 4): 6.051
B2: CXCL14: mature 77-amino acid chemokine, 9.4 kDa, also known as BRAK; purchased from BIOZOL (protein)
chain: B1 chain
modifications: two disulfide bonds (native chemokine fold); entity numbering = mature + 1
